What all share (test): biochemical
What all share (design): In vitro kinase panel profiling, per cent remaining kinase activity at 10 uM

For test [1], the target named is T1, Rse(h) (Homo sapiens, UniProt Q06418).
T1 construct: gene TYRO3
T1 sequence (Q06418 1-890): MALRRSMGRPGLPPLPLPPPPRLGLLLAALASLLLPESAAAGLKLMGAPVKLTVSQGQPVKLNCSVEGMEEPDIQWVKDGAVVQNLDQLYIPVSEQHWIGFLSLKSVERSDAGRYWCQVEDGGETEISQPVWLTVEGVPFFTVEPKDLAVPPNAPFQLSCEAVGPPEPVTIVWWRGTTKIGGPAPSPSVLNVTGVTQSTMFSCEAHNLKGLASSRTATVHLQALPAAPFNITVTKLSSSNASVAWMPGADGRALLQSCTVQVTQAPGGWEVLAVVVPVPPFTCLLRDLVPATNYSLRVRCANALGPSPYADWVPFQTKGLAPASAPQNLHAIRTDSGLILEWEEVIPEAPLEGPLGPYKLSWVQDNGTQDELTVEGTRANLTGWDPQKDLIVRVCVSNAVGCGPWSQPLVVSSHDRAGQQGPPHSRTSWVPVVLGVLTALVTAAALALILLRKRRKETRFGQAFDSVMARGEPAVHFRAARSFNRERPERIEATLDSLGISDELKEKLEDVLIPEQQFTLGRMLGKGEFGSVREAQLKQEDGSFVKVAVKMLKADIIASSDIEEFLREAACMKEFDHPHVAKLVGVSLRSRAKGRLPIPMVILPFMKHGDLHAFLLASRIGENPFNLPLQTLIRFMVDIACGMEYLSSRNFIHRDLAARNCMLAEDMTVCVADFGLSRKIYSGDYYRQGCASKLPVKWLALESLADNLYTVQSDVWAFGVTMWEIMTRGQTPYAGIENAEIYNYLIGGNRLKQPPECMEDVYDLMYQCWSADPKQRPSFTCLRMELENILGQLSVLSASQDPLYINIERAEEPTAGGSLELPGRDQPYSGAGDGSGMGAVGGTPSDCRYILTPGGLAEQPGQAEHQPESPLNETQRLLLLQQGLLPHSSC
The note with it: atp_concentration=45, read-out: % of control remaining. The source says: (§1) We derisk potential for off-target activity by profiling the compound in a CEREP panel, a standard secondary pharmacology assessment, as well as a kinase panel to derisk a potential hinge-binding motif in our leads, and a PARP panel to derisk activity against human […]. Reassuringly, the compounds are selective, with the only off-targets being moderate human CHRM2 and KOR receptors activity associated with ASAP-0011198.

In test [2] the target is T2, PRAK(h) (Homo sapiens, UniProt Q8IW41).
T2 construct: gene MAPKAPK5
T2 sequence (Q8IW41 1-473): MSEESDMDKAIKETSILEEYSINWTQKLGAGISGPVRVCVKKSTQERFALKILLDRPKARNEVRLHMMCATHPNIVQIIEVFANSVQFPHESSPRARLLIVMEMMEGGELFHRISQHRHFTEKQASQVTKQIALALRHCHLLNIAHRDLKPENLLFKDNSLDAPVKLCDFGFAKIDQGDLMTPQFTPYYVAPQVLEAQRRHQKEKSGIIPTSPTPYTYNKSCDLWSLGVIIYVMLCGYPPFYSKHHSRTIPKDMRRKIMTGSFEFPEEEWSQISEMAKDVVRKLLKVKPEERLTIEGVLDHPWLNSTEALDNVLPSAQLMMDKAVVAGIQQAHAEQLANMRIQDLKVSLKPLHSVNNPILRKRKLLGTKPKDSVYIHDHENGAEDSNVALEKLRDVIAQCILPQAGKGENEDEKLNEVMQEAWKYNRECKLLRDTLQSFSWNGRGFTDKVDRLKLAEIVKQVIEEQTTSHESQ
The settings on record: atp_concentration=15, read-out: % of control remaining.
Source text: as §1

In test [3] the target is CDK1/cyclinB(h) (Homo sapiens, UniProt P06493). The note with it: atp_concentration=45, read-out: % of control remaining.
Source text: as §1

Test [4] addresses T3, Mnk2(h) (Homo sapiens, UniProt Q9HBH9).
T3 construct: gene MKNK2
The note with it: atp_concentration=120, read-out: % of control remaining.
Source text: as §1

Test [5] addresses T4, IKKα(h) (Homo sapiens, UniProt O15111).
T4 construct: gene CHUK
T4 sequence (O15111 1-745): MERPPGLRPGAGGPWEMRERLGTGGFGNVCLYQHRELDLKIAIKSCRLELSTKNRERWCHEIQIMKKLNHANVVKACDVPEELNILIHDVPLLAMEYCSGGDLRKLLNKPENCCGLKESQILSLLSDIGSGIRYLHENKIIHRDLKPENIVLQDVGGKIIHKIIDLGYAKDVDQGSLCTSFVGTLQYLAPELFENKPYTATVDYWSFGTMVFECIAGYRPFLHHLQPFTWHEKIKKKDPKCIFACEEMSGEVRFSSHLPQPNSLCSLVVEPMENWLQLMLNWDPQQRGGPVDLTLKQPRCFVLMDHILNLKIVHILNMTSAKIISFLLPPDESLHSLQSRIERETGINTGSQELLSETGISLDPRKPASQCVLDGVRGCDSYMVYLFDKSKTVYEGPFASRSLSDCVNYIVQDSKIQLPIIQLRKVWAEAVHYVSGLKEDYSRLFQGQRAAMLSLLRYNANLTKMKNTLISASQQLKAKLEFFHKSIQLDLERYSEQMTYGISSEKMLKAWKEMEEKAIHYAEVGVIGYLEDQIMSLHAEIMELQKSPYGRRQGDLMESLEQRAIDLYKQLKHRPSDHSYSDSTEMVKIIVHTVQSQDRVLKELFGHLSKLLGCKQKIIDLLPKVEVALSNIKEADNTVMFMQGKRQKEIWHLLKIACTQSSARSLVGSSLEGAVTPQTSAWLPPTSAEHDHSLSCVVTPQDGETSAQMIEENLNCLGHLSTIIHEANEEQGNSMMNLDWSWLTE
The note with it: atp_concentration=10, read-out: % of control remaining.
Source text: as §1

The target in test [6] is SRPK1(h) (Homo sapiens, UniProt Q96SB4). The note with it: atp_concentration=10, read-out: % of control remaining.
Source text: as §1

Test [7] has as its target T5, Abl(h) (Homo sapiens, UniProt P00519).
T5 construct: gene ABL1
The note with it: atp_concentration=45, read-out: % of control remaining.
Source text: as §1

Each structure is given as a SMILES string. Read-outs that look alike come from different tables or passages of the source.

Sequence of CDK1/cyclinB(h) (P06493 whole entry): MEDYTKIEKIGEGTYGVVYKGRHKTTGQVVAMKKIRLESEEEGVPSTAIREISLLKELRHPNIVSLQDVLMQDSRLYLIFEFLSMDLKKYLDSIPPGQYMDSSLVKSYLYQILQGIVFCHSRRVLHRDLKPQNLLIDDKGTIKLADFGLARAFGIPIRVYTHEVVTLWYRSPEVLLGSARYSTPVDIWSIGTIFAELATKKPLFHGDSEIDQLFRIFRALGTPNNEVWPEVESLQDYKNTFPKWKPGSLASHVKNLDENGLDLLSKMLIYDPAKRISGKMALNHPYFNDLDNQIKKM
Sequence of CDK1/cyclinB(h) (P14635 whole entry partner): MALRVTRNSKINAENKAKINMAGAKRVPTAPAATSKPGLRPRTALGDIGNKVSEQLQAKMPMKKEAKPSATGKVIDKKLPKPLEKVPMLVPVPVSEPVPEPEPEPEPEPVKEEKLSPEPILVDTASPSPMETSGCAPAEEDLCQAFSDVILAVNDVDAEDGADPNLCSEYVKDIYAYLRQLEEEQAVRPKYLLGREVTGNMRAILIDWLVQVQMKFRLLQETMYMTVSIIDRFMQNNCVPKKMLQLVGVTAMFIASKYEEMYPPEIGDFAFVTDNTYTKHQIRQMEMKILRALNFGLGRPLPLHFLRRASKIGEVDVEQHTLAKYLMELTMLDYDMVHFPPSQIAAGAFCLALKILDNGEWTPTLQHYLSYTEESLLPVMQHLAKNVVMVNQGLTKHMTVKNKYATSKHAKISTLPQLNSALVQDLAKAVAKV
T3 sequence (Q9HBH9 whole entry): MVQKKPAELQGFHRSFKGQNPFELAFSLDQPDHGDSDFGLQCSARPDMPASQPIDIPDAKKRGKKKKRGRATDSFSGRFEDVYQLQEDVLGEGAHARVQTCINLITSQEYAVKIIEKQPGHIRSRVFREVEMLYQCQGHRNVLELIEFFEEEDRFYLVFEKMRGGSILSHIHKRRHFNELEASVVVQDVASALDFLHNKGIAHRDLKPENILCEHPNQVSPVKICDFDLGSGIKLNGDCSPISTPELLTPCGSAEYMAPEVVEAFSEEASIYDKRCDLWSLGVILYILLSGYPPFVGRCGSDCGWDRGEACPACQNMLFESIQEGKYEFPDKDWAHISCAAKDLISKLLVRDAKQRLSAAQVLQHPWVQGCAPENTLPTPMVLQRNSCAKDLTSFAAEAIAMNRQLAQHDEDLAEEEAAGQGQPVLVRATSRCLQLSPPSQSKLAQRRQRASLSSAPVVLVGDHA
Sequence of SRPK1(h) (Q96SB4 whole entry): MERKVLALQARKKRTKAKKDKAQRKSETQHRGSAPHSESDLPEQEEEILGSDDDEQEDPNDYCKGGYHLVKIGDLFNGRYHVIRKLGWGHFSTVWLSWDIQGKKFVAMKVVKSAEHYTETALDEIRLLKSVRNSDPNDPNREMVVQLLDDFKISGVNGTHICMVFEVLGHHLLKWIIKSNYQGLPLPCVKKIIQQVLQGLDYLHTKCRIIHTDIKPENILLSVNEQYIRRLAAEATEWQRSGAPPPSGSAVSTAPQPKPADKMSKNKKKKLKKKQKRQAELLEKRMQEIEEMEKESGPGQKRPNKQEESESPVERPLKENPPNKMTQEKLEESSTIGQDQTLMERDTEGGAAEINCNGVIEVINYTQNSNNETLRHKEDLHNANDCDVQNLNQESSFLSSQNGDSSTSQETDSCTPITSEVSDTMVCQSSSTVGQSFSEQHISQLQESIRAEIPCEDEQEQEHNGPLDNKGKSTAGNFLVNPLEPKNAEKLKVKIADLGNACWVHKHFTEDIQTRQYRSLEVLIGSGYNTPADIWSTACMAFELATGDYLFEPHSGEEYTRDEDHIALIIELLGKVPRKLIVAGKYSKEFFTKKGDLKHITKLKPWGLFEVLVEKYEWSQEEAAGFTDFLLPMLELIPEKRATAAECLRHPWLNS
T5 sequence (P00519 whole entry): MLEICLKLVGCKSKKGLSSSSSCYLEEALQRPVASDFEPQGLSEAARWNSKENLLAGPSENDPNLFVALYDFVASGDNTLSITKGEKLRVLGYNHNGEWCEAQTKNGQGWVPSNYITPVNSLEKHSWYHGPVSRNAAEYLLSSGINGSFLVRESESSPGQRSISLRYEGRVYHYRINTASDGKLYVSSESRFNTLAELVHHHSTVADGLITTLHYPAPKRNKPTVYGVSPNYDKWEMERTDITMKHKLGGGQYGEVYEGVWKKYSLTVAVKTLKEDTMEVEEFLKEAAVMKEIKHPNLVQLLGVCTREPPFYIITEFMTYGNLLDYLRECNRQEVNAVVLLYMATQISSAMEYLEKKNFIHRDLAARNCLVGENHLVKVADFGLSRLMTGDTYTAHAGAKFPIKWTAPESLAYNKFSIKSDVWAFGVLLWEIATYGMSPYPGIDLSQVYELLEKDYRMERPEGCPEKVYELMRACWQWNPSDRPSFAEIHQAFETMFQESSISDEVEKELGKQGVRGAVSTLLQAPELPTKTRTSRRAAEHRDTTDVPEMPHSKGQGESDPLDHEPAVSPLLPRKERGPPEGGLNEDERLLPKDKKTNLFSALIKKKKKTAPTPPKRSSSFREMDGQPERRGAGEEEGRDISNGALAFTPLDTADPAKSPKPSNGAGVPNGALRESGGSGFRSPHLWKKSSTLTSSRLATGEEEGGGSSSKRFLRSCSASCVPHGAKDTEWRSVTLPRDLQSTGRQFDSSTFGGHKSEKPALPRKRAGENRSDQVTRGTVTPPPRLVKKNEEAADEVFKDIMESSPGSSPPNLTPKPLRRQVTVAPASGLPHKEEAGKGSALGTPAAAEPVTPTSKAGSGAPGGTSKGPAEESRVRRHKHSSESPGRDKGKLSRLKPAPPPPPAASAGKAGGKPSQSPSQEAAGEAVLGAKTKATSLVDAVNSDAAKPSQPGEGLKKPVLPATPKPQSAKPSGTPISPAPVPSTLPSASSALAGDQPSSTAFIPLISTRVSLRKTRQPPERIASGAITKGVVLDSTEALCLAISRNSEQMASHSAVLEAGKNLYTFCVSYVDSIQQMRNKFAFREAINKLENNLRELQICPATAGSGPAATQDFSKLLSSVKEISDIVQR

Consider `CC(C)C(Nc1ncnc2[nH]ccc12)c1ccc2c(c1)S(=O)(=O)CCC2` (centres unmarked) [ASAP-0008327], for which the remaining activity at 10 µM in test [1] (batch_name=ASAP-0008327-001) turned out to be 115%; in test [2] (batch_name=ASAP-0008327-001), 107%; in test [3] (batch_name=ASAP-0008327-001) it was 129%; in test [4] (batch_name=ASAP-0008327-001) it was 89%; in test [5] (batch_name=ASAP-0008327-001), 91%; in test [6] (batch_name=ASAP-0008327-001), 105%. The remaining activity at 10 µM in test [7] (batch_name=ASAP-0008327-001) was 93%.
Take `COc1ccc([C@@H](Cc2nnn[nH]2)NC(=O)c2ncnc3[nH]ccc23)cc1` [ASAP-0008340]: the remaining activity at 10 µM in test [1] (batch_name=ASAP-0008340-001) was found to be 88%; in test [2] (batch_name=ASAP-0008340-001), 95%; in test [3] (batch_name=ASAP-0008340-001), 108%; in test [4] (batch_name=ASAP-0008340-001) it was 84%; in test [5] (batch_name=ASAP-0008340-001), 99%; in test [6] (batch_name=ASAP-0008340-001), 102%. Further, the remaining activity at 10 µM in test [7] (batch_name=ASAP-0008340-001) came to 98%.
As to `CC(C)[C@@H](Nc1ncnc2[nH]c(-c3cnn(C)c3C#N)cc12)c1ccc2c(n1)OCCO2` [ASAP-0008418], the remaining activity at 10 µM in test [1] (batch_name=ASAP-0008418-001) stood at 116%; in test [2] (batch_name=ASAP-0008418-001), 95%; in test [3] (batch_name=ASAP-0008418-001), 95%; in test [4] (batch_name=ASAP-0008418-001) it was 77%; in test [5] (batch_name=ASAP-0008418-001), 111%; in test [6] (batch_name=ASAP-0008418-001), 92%. For the same compound, the remaining activity at 10 µM in test [7] (batch_name=ASAP-0008418-001) worked out at 52%.
With `CC(C)[C@H](Nc1ncnc2[nH]ccc12)c1ccc2c(c1)S(=O)(=O)CCC2` [ASAP-0008674], the remaining activity at 10 µM was 86% in test [1] (batch_name=ASAP-0008674-002); 102% in test [2] (batch_name=ASAP-0008674-002); 93% in test [3] (batch_name=ASAP-0008674-002); 98% in test [4] (batch_name=ASAP-0008674-002); 92% in test [5] (batch_name=ASAP-0008674-002); 100% in test [6] (batch_name=ASAP-0008674-002). The remaining activity at 10 µM in test [7] (batch_name=ASAP-0008674-002) was determined as 105%.
Regarding `CC(C)[C@H](Nc1ncnc2[nH]c(-c3cnn(C)c3C#N)cc12)c1ccc2c(n1)OCCO2` [ASAP-0010715], the remaining activity at 10 µM in test [1] (batch_name=ASAP-0010715-002) turned out to be 105%; in test [2] (batch_name=ASAP-0010715-002) it was 84%; in test [3] (batch_name=ASAP-0010715-002) it was 89%; in test [4] (batch_name=ASAP-0010715-002) it was 95%; in test [5] (batch_name=ASAP-0010715-002), 120%; in test [6] (batch_name=ASAP-0010715-002), 111%. Besides, the remaining activity at 10 µM in test [7] (batch_name=ASAP-0010715-002) is 57%.
Turning to `CC(C)[C@@H](Nc1ncnc2[nH]c(-c3cnn(C)c3C#N)cc12)c1ccc2c(n1)OCCO2` [ASAP-0010716], the remaining activity at 10 µM in test [1] (batch_name=ASAP-0010716-002) turned out to be 107%; in test [2] (batch_name=ASAP-0010716-002), 89%; in test [3] (batch_name=ASAP-0010716-002), 88%; in test [4] (batch_name=ASAP-0010716-002), 83%; in test [5] (batch_name=ASAP-0010716-002), 104%; in test [6] (batch_name=ASAP-0010716-002), 104%. Moreover, in test [7] (batch_name=ASAP-0010716-002), the remaining activity at 10 µM turned out to be 57%.
`CNCc1cc(-c2cc3c(N[C@@H](c4ccc5c(c4)S(=O)(=O)CCC5)C(C)C)ncnc3[nH]2)co1` [ASAP-0011176]: the remaining activity at 10 µM came to 81% in test [1] (batch_name=ASAP-0011176-002); 122% in test [2] (batch_name=ASAP-0011176-002); 97% in test [3] (batch_name=ASAP-0011176-002); 94% in test [4] (batch_name=ASAP-0011176-002); 79% in test [5] (batch_name=ASAP-0011176-002); 101% in test [6] (batch_name=ASAP-0011176-002). In addition, the remaining activity at 10 µM in test [7] (batch_name=ASAP-0011176-002) is 51%.
`CC(C)C(Nc1ncnc2[nH]c(C(=O)NC3CCN(C)C3)cc12)c1ccc2c(c1)S(=O)(=O)CCC2` (centres unmarked) [ASAP-0011198]: the remaining activity at 10 µM in test [1] (batch_name=ASAP-0011198-002) came out at 107%; in test [2] (batch_name=ASAP-0011198-002), 111%; in test [3] (batch_name=ASAP-0011198-002) it was 103%; in test [4] (batch_name=ASAP-0011198-002), 99%; in test [5] (batch_name=ASAP-0011198-002) it was 82%; in test [6] (batch_name=ASAP-0011198-002) it was 108%. Also, the remaining activity at 10 µM in test [7] (batch_name=ASAP-0011198-002) worked out at 100%.

These data come from publication doi:10.1101/2024.08.19.608619, “Discovery of potent SARS-CoV-2 nsp3 macrodomain inhibitors uncovers lack of translation to cellular antiviral response” (bioRxiv, 2024).
